Like-named read-outs stand apart in the source and are kept apart here.
Columns and labels:
[1] = target: T1, recombinant alpha-glucosidase II (murine full-length glucosidase II, alpha and beta subunits, Glu 2) (Mus musculus, UniProt Q8BHN3); assay: Alpha-glucosidase II assay (4-methylumbelliferyl-alpha-D-pyranoside substrate, fluorescence); format: biochemical
T1 construct: made in house; host or cells: HEK-293T cells transduced with BacMam viruses (75% alpha, 25% beta); protein harvested from culture supernatant

[2] = target: T2, recombinant human GBA (beta-glucocerebrosidase) (Homo sapiens, UniProt P04062); assay: Beta-glucocerebrosidase (GBA, glucosylceramidase) assay (4-methylumbelliferyl-beta-D-pyranoside substrate, fluorescence); format: biochemical
T2 sequence (P04062 40-536): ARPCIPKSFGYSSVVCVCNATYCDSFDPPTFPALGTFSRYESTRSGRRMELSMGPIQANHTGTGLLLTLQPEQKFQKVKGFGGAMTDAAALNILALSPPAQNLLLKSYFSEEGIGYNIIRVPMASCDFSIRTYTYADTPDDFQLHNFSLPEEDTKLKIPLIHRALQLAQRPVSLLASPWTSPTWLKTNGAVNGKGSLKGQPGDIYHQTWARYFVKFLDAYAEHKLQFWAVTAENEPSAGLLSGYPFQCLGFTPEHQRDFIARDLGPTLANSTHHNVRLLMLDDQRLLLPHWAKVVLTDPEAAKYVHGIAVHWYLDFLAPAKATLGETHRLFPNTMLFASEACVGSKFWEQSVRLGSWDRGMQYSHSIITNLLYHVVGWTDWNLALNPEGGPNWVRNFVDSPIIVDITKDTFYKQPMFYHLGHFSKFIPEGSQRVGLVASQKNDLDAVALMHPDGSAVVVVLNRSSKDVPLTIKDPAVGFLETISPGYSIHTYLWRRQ
In short: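 Recombinant human GBA preincubated with compound dilutions 60 min at 37 °C, then 4-methylumbelliferyl-beta-D-pyranoside added for 60 min at 37 °C. Stopped at pH 10 (glycine/NaOH); fluorescence ex 365/em 440 nm. IC50 from 4-PL fit of inhibition relative to untreated enzyme.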

[3] = Glucosidase 2, read-out: Glu2 IC50

T1 sequence (O08795 15-521): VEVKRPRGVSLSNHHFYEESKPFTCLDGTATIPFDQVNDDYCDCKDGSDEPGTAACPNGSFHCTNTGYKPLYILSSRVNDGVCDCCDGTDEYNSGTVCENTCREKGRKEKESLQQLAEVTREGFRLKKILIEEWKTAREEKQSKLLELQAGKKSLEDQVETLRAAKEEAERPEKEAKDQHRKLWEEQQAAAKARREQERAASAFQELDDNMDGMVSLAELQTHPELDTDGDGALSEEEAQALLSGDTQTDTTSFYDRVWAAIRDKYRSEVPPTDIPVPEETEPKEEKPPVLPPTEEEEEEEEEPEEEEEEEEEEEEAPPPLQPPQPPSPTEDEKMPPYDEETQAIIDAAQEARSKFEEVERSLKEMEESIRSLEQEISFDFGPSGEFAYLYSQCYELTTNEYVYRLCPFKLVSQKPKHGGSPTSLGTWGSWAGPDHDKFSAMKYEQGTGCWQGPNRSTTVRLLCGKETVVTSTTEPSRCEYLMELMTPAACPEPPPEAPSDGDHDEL
T1 sequence (Q8BHN3 33-944): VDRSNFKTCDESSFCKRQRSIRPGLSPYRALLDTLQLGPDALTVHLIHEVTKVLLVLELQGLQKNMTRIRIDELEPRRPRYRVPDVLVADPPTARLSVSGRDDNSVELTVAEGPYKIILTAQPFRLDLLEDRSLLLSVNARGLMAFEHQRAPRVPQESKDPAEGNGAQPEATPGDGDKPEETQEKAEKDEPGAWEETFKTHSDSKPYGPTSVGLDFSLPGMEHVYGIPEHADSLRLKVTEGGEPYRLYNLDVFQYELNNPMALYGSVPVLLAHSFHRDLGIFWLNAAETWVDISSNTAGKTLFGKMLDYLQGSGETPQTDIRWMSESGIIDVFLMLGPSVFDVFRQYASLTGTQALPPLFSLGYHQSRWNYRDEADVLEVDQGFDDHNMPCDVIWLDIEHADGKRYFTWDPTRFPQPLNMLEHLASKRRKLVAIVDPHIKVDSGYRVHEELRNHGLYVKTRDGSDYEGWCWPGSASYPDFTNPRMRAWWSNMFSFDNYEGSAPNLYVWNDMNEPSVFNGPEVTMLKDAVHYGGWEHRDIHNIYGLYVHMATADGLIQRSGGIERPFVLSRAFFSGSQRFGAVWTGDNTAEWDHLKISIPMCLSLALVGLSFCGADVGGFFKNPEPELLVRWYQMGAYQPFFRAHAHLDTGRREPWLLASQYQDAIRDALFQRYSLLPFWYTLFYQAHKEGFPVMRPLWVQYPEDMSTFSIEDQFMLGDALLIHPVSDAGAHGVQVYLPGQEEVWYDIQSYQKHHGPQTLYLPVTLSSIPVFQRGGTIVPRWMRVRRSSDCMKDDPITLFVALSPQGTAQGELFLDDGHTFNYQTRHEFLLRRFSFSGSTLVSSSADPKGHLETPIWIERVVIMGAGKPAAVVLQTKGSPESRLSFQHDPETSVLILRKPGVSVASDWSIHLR

Structure (SMILES) | IC50 [1, 3] [nM] | IC50 [2] [nM] | IC50 [1] [nM]
OC[C@@H]1[C@@H](O)[C@H](O)[C@@H](O)CN1CCCCCCNc1ccc(-c2cccnn2)cc1Cl [Compound 1202, (2R,3R,4R,5S)-1-(6-{[2-chloro-4-(pyridazin-3-yl)phenyl]amino}hexyl)-2-(hydroxymethyl)piperidine-3,4,5-triol] | < 1 | 3010 | –
OC[C@@H]1[C@@H](O)[C@H](O)[C@@H](O)CN1CCCCCCNc1ccc(-c2ncco2)cc1Cl [Compound 1203, (2R,3R,4R,5S)-1-(6-{[2-chloro-4-(1,3-oxazol-2-yl)phenyl]amino}hexyl)-2-(hydroxymethyl)piperidine-3,4,5-triol] | < 1 | 787 | –
COc1cc(-c2ncco2)ccc1NCCCCCCN1C[C@H](O)[C@@H](O)[C@H](O)[C@H]1CO [Compound 1207, (2R,3R,4R,5S)-2-(hydroxymethyl)-1-(6-{[2-methoxy-4-(1,3-oxazol-2-yl)phenyl]amino}hexyl)piperidine-3,4,5-triol] | 14 | 1680 | –
[N-]=[N+]=Nc1ccc(NCC/C=C/CCN2C[C@H](O)[C@@H](O)[C@H](O)[C@H]2CO)c([N+](=O)[O-])c1 [Compound 1260, (2R,3R,4R,5S)-1-[(3E)-6-[(4-azido-2-nitrophenyl)amino]hex-3-en-1-yl]-2-(hydroxymethyl)piperidine-3,4,5-triol] | – | 1560 | 15
O=[N+]([O-])c1cc(CCO)ccc1NCCCCCCN1C[C@H](O)[C@@H](O)[C@H](O)[C@H]1CO [Compound 1292, (2R,3R,4R,5S)-1-(6-{[4-(2-hydroxyethyl)-2-nitrophenyl]amino}hexyl)-2-(hydroxymethyl)piperidine-3,4,5-triol] | 8.6 | 1600 | –
CS(=O)(=O)Nc1ccc(NCCCCCCN2C[C@H](O)[C@@H](O)[C@H](O)[C@H]2CO)c([N+](=O)[O-])c1 [Compound 1300, N-[3-nitro-4-({6-[(2R,3R,4R,5S)-3,4,5-trihydroxy-2-(hydroxy-methyl)piperidin-1-yl]hexyl}amino)phenyl]methanesulfonamide] | 14 | 26 | –
COCCc1ccc(CCCCCN2C[C@H](O)[C@@H](O)[C@H](O)[C@H]2CO)cc1 [Compound 1307, (2R,3R,4R,5S)-2-(hydroxymethyl)-1-{5-[4-(2-methoxyethyl)phenyl]pentyl}piperidine-3,4,5-triol] | 77 | 5000 | –
Cc1cc(-c2ccco2)ccc1NCc1ccc(CN2C[C@H](O)[C@@H](O)[C@H](O)[C@H]2CO)cc1 [Compound 1324, (2R,3R,4R,5S)-1-{[4-({[4-(furan-2-yl)-2-methylphenyl]amino}methyl)phenyl]methyl}-2-(hydroxymethyl)piperidine-3,4,5-triol] | 318 | 33700 | –
Cc1cc(NCc2cccc(CN3C[C@H](O)[C@@H](O)[C@H](O)[C@H]3CO)n2)cc(-c2ccc[nH]2)c1 [Compound 1335, (2R,3R,4R,5S)-2-(hydroxymethyl)-1-{[6-({[3-methyl-5-(1H-pyrrol-2-yl)phenyl]amino}methyl)pyridin-2-yl]methyl}piperidine-3,4,5-triol] | – | 21500 | > 100000
Cc1nc2cc(-c3ncccn3)ccc2n1CCCCCCN1C[C@H](O)[C@@H](O)[C@H](O)[C@H]1CO [Compound 1339, (2R,3R,4R,5S)-2-(hydroxymethyl)-1-{6-[2-methyl-5-(pyrimidin-2-yl)-1H-1,3-benzodiazol-1-yl]hexyl}piperidine-3,4,5-triol] | 194 | 626 | –
